Laboratory results from patent publication US5084453A, “1-carboxy-1-vinyloxyimino aminothiazole cephalosporin derivatives” (priority 1988, dated 1992).
≈ marks a conversion by molar mass, not a printed value. Read-outs that look alike come from different tables or passages of the source.

Legend:
Experiment in all cases: in vitro antibacterial activity, agar plate dilution method
Format in all cases: cell-based
K. pneumoniae PC1-602 = tested on: K. pneumoniae PC1-602
Procedure: (§1) Now, the in vitro antibacterial activities of the compounds of the present invention against various microorganisms, were measured by the following agar plate dilution method.
(§2) One platinum loopfull of each test microorganism incubated overnight in Mueller Hinton broth, was inoculated to Mueller Hinton agar (MH agaer). Such culture media containing various antibiotics in various concentrations were prepared. After incubation at 37° C. for 16 hours, the minimum inhibitory concentrations (MIC μg/ml) were measured.

P. vulgaris HX-19 = tested on: P. vulgaris HX-19
Procedure: as §1, §2

S. marcescens No. 16-2* = tested on: S. marcescens No. 16-2*
Procedure: as §1, §2

Ps. aeruginosa AK 109 = tested on: Ps. aeruginosa AK 109
Procedure: as §1, §2

E. cloacae 963 = tested on: E. cloacae 963
Procedure: as §1, §2

E. coli NIHJ JC2 = details: 10^6 CFU/ml, Mueller Hinton agar, 37° C., 16 hours
Procedure: as §1, §2

E. coli GN5482* = tested on: E. coli GN5482*
Procedure: as §1, §2

K. pneumoniae No. 42* = tested on: K. pneumoniae No. 42*
Procedure: as §1, §2

S. marcescens IAM 1184 = tested on: S. marcescens IAM 1184
Procedure: as §1, §2

A. calcoaceticus No. 4 = tested on: A. calcoaceticus No. 4
Procedure: as §1, §2

Ps. aeruginosa AKR17 = details: 10^6 CFU/ml, Mueller Hinton agar, 37° C., 16 hours
Procedure: as §1, §2

M. morganii GN5407* = tested on: M. morganii GN5407*
Procedure: as §1, §2

K. oxytoca GN10650* = tested on: K. oxytoca GN10650*
Procedure: as §1, §2

E. coli CSH(RE45)* = details: 10^6 CFU/ml, β-Lactamase-producing strain, 37° C., 16 hours
Procedure: as §1, §2

P. vulgaris No. 33* = tested on: P. vulgaris No. 33*
Procedure: as §1, §2

E. cloacae Nek 39* = tested on: E. cloacae Nek 39*
Procedure: as §1, §2

Ps. aeruginosa IFO3445 = tested on: Ps. aeruginosa IFO3445
Procedure: as §1, §2

Ps. cepacia 23 = tested on: Ps. cepacia 23
Procedure: as §1, §2

S. aureus 209P NIHJ-JC1 = tested on: S. aureus 209P NIHJ-JC1
Procedure: as §1, §2

E. coli CSH2(RK1)* = details: Escherichia coli, 16 h
Procedure: as §1, §2

[1] = 10^6 CFU/ml, Mueller Hinton agar, 37° C., 16 hours
[2] = 10^6 CFU/ml, β-Lactamase-producing strain, 37° C., 16 hours
[3] = Klebsiella pneumoniae, PC1602, 10^6 CFU/ml, Mueller Hinton agar, 37° C., 16 hours, read-out: MIC
[4] = Enterobacter cloacae, 963, 16 h
[5] = Escherichia coli, NIHJJC2, read-out: MIC
[6] = Serratia marcescens, IAM1184, 16 h
[7] = Acinetobacter calcoaceticus, NO.4, 10^6 CFU/ml, Mueller Hinton agar, 37° C., 16 hours, read-out: MIC
[8] = Pseudomonas aeruginosa, AKR17, read-out: MIC
[9] = Morganella morganii, GN5407, 16 h
[10] = Klebsiella oxytoca, GN10650, 16 h
[11] = Escherichia coli, read-out: MIC
[12] = Pseudomonas aeruginosa, AK109, 16 h
[13] = Pseudomonas aeruginosa, IFO3445, 16 h

| SMILES | MIC (E. coli CSH2(RK1)*) [µg/mL] | MIC (K. pneumoniae PC1-602; [3]) [µg/mL] | MIC (S. marcescens No. 16-2*; Serratia marcescens, 16 h) [µg/mL] | MIC (E. cloacae 963; [4]) [µg/mL] | MIC (E. coli NIHJ JC2; [5]) [µg/mL] | MIC (E. coli GN5482*; Escherichia coli, GN5482, 16 h) [µg/mL] | MIC (K. pneumoniae No. 42*; Klebsiella pneumoniae, 16 h) [µg/mL] | MIC (S. marcescens IAM 1184; [6]) [µg/mL] | MIC (A. calcoaceticus No. 4; [7]) [µg/mL] | MIC (Ps. aeruginosa AKR17; [8]) [µg/mL] | MIC (M. morganii GN5407*; [9]) [µg/mL] | MIC (K. oxytoca GN10650*; [10]) [µg/mL] | MIC (E. coli CSH(RE45)*; [11]) [µg/mL] | MIC (P. vulgaris No. 33*; Proteus vulgaris, 16 h) [µg/mL] | MIC (E. cloacae Nek 39*; Enterobacter cloacae, 16 h) [µg/mL] | MIC (Ps. cepacia 23; Burkholderia cepacia, 23, 16 h) [µg/mL] | MIC (S. aureus 209P NIHJ-JC1; Staphylococcus aureus, 16 h) [µg/mL] | MIC (P. vulgaris HX-19; Proteus vulgaris, HX19, 16 h) [µg/mL] | MIC (Ps. aeruginosa AK 109; [12]) [µg/mL] | MIC (Ps. aeruginosa IFO3445; [13]) [µg/mL] | further results |
| --- | --- | --- | --- | --- | --- | --- | --- | --- | --- | --- | --- | --- | --- | --- | --- | --- | --- | --- | --- | --- | --- |
| C=C(ON=C(C(=O)N[C@@H]1C(=O)N2C(C(=O)[O-])=C(C[n+]3ccccc3)CS[C@H]12)c1csc(N)n1)C(=O)O (single isomer, unassigned) [Example 1, 7β-[2-(2-aminothiazol-4-yl)-2-(1-carboxy-1-vinyloxyimino)acetamido]-3-(1-pyridinio)methyl-3-cephem-4-carboxylate (syn-isomer)] |  |  |  |  |  |  |  |  |  |  |  |  |  |  |  |  |  |  |  |  | MIC (K. pneumoniae PC1-602; [1]): < 0.006 µg/mL; MIC (P. vulgaris HX-19; [1]): 0.0125 µg/mL (≈ 0.0236 µM); MIC (S. marcescens No. 16-2*; [2]): 0.78 µg/mL (≈ 1.47 µM); MIC (Ps. aeruginosa AK 109; [1]): 1.56 µg/mL (≈ 2.94 µM); MIC (E. cloacae 963; [1]): 0.025 µg/mL (≈ 0.0471 µM); MIC (E. coli NIHJ JC2): 0.025 µg/mL (≈ 0.0471 µM); MIC (E. coli GN5482*; [2]): 0.2 µg/mL (≈ 0.377 µM); MIC (K. pneumoniae No. 42*; [2]): 0.1 µg/mL (≈ 0.188 µM); MIC (S. marcescens IAM 1184; [1]): < 0.006 µg/mL; MIC (A. calcoaceticus No. 4; [1]): 12.5 µg/mL (≈ 23.6 µM); MIC (Ps. aeruginosa AKR17): > 100 µg/mL; MIC (M. morganii GN5407*; [2]): 0.0125 µg/mL (≈ 0.0236 µM); MIC (K. oxytoca GN10650*; [2]): 0.1 µg/mL (≈ 0.188 µM); MIC (E. coli CSH(RE45)*): 0.025 µg/mL (≈ 0.0471 µM); MIC (P. vulgaris No. 33*; [2]): 0.0125 µg/mL (≈ 0.0236 µM); MIC (E. cloacae Nek 39*; [2]): 0.39 µg/mL (≈ 0.735 µM); MIC (Ps. aeruginosa IFO3445; [1]): 0.78 µg/mL (≈ 1.47 µM); MIC (Ps. cepacia 23; [1]): 3.12 µg/mL (≈ 5.88 µM); MIC (S. aureus 209P NIHJ-JC1; [1]): 3.12 µg/mL (≈ 5.88 µM) |
| CO/N=C(\C(=O)N[C@@H]1C(=O)N2C(C(=O)O)=C(COC(C)=O)CS[C@H]12)c1csc(N)n1 [Cefotaxime, reference compound] | 0.0125 (≈ 0.0274 µM) | < 0.006 | 6.25 (≈ 13.7 µM) | 0.05 (≈ 0.11 µM) | 0.05 (≈ 0.11 µM) | 0.39 (≈ 0.856 µM) | 0.05 (≈ 0.11 µM) | 0.0125 (≈ 0.0274 µM) | 25 (≈ 54.9 µM) | > 100 | 0.05 (≈ 0.11 µM) | 0.39 (≈ 0.856 µM) | 0.1 (≈ 0.22 µM) | 0.025 (≈ 0.0549 µM) | 1.56 (≈ 3.43 µM) | 6.25 (≈ 13.7 µM) | 1.56 (≈ 3.43 µM) |  |  |  | MIC (P. vulgaris HX-19; Proteus vulgaris, HX19, 10^6 CFU/ml, Mueller Hinton agar, 37° C., 16 hours, read-out: MIC): < 0.006 µg/mL; MIC (Ps. aeruginosa AK 109; Pseudomonas aeruginosa, AK109, 10^6 CFU/ml, Mueller Hinton agar, 37° C., 16 hours, read-out: MIC): 12.5 µg/mL (≈ 27.4 µM); MIC (Ps. aeruginosa IFO3445; Pseudomonas aeruginosa, IFO3445, 10^6 CFU/ml, Mueller Hinton agar, 37° C., 16 hours, read-out: MIC): 25 µg/mL (≈ 54.9 µM) |
| CC(C)(O/N=C(\C(=O)N[C@@H]1C(=O)N2C(C(=O)[O-])=C(C[n+]3ccccc3)CS[C@H]12)c1csc(N)n1)C(=O)O [Ceftazidime, reference compound] | 0.1 (≈ 0.183 µM) |  | 1.56 (≈ 2.85 µM) | 0.1 (≈ 0.183 µM) | 0.1 (≈ 0.183 µM) | 1.56 (≈ 2.85 µM) | 0.39 (≈ 0.714 µM) | < 0.006 |  | > 100 | 0.1 (≈ 0.183 µM) | 0.1 (≈ 0.183 µM) | 0.2 (≈ 0.366 µM) | 0.5 (≈ 0.915 µM) | 1.56 (≈ 2.85 µM) | 0.78 (≈ 1.43 µM) | 6.25 (≈ 11.4 µM) | 0.025 (≈ 0.0457 µM) | 0.78 (≈ 1.43 µM) | 1.56 (≈ 2.85 µM) | MIC (K. pneumoniae PC1-602; Klebsiella pneumoniae, PC1602, 16 h): 0.25 µg/mL (≈ 0.457 µM); MIC (A. calcoaceticus No. 4; Acinetobacter calcoaceticus, NO.4, 16 h): 6.25 µg/mL (≈ 11.4 µM) |
| C=C(O/N=C(\C(=O)N[C@@H]1C(=O)N2C(C(=O)[O-])=C(C[n+]3cccc4c3CCC4)CS[C@H]12)c1csc(N)n1)C(=O)O [Example 2, 7β-[2-(2-aminothiazol-4-yl)-2-(1-carboxy-1-vinyloxyimino)acetamido]-3-(2,3-cychlopenteno-pyridinio)methyl-3-cephem-4-carboxylate (syn-isomer)] | 0.025 (≈ 0.0438 µM) | 0.0125 (≈ 0.0219 µM) | 0.78 (≈ 1.37 µM) | 0.05 (≈ 0.0876 µM) | 0.05 (≈ 0.0876 µM) | 0.1 (≈ 0.175 µM) | 0.39 (≈ 0.683 µM) |  | 3.12 (≈ 5.47 µM) | 100 (≈ 175 µM) | 0.025 (≈ 0.0438 µM) | 0.1 (≈ 0.175 µM) | 0.78 (≈ 1.37 µM) | 0.025 (≈ 0.0438 µM) | 0.2 (≈ 0.351 µM) | 0.39 (≈ 0.683 µM) | 1.56 (≈ 2.73 µM) | 0.025 (≈ 0.0438 µM) | 1.56 (≈ 2.73 µM) | 1.56 (≈ 2.73 µM) | MIC (S. marcescens IAM 1184; Serratia marcescens, IAM1184, 10^6 CFU/ml, Mueller Hinton agar, 37° C., 16 hours, read-out: MIC): 0.0125 µg/mL (≈ 0.0219 µM) |
